Activity calls are given as the source filed them. The calls are words filed in the database; no cut-off is given here. A value given as a limit tells only on which side of the number the result lay.

Data set [1] concerns Rattus norvegicus. Nature of the data set: Inhibition of FAAH in Sprague-Dawley rat brain homogenate assessed as residual activity measured as [3H]-anandamide hydrolysis at 6 mg/kg after 4 hrs by liquid scintillation analysis. Type of data set: functional.
The subject of data set [2] is Rattus norvegicus. In words: Inhibition of FAAH in Sprague-Dawley rat brain homogenate assessed as time duration needed for enzyme activity recovery by measuring [3H]-anandamide hydrolysis at 6 mg/kg by liquid scintillation analysis. Type of data set: functional.
For data set [3], the species on record is Rattus norvegicus. The note with it: Sprague-Dawley, Brain, 6 mg/kg.
Description: Inhibition of FAAH in Sprague-Dawley rat brain homogenate assessed as increase in PEA levels at 6 mg/kg after 0.5 to 4 hrs by liquid scintillation analysis
The species entered for data set [4] is Rattus norvegicus. To be noted: Sprague-Dawley, Brain, 6 mg/kg. This is another data set of the same source.
Description: Inhibition of FAAH in Sprague-Dawley rat brain homogenate assessed as increase in OEA levels at 6 mg/kg after 0.5 to 4 hrs by liquid scintillation analysis
Data set [5] deals with Rattus norvegicus. Nature of the data set: Inhibition of FAAH in Sprague-Dawley rat brain homogenate assessed as time duration needed for enzyme activity recovery by measuring [3H]-anandamide hydrolysis at 20 mg/kg by liquid scintillation analysis. Type of data set: functional.
A short description of data set [6]: Clearance in Sprague-Dawley rat. Type of data set: ADME, organism-based. To be noted: in vivo.
Data set [7] is described as follows: Volume of distribution at Steady state in Sprague-Dawley rat. Type of data set: ADME, organism-based. The note with it: in vivo, read-out: Vdss.
The nature of data set [8]: Oral bioavailability in Sprague-Dawley rat. Type of data set: ADME, organism-based. The note with it: in vivo.
The nature of data set [9]: Dissociation constant, pKa of the compound at pH 7.2. In kind it is physicochemical.
Data set [10] deals with Rattus norvegicus. Nature of the data set: Inhibition of FAAH in Sprague-Dawley rat brain homogenate assessed as reduction in residual activity measured as [3H]-anandamide hydrolysis at 20 mg/kg after 30 mins by liquid scintillation analysis. The note with it: read-out: INH.
The test system of data set [11] is Rattus norvegicus. In words: Inhibition of FAAH in Sprague-Dawley rat brain homogenate assessed as residual activity measured as [3H]-anandamide hydrolysis at 20 mg/kg after 1 hr by liquid scintillation analysis. In kind it is functional.
The subject of data set [12] is Rattus norvegicus. Nature of the data set: Inhibition of FAAH in Sprague-Dawley rat brain homogenate assessed as residual activity measured as [3H]-anandamide hydrolysis at 20 mg/kg after 4 hrs by liquid scintillation analysis. Type of data set: functional.
For data set [13], the system named is Rattus norvegicus. Nature of the data set: Inhibition of FAAH in Sprague-Dawley rat brain homogenate assessed as increase in PEA levels at 20 mg/kg after 0.5 to 4 hrs by […]. In kind it is functional, organism-based.
In data set [14] the test system is Rattus norvegicus. In words: Inhibition of FAAH in Sprague-Dawley rat brain homogenate assessed as increase in OEA levels at 20 mg/kg after 0.5 to 4 hrs by […]. In kind it is functional, organism-based.

Turning to `O=C(Nc1nn[nH]n1)N1CCN(Cc2cccc(Oc3ccc(Cl)cc3)c2)CC1`, in the data set with Rattus norvegicus [1], the Activity is below 10%. Also, the Time in the data set with Rattus norvegicus [2] came to 24 h. Also, the inhibition result in the data set listed under Rattus norvegicus [3] and in the data set listed under Rattus norvegicus [4] was “Active” each time.
`O=C(Nc1cnc2ccccn12)N1CCN(Cc2cccc(Oc3ccc(Cl)cc3)c2)CC1`: in the data set with Rattus norvegicus [5], the Time amounted to 24 h. In data set [6], this compound gave a clearance of 63.3 mL/min/kg. Moreover, the Vd in data set [7] worked out at 10.7 L/kg. Moreover, in data set [8], the bioavailability is 60%. For the same compound, in [9], the pKa was 6.8. In addition, the inhibition in vivo at 20 mg/kg with Rattus norvegicus [10] was 60%. Besides, the Activity with Rattus norvegicus [11] was below 10%; in the data set on Rattus norvegicus [12], below 5%. Also, the “FAAH inhibition (PEA level increase), active/inactive” value in the data set on Rattus norvegicus [13] was “Active”. Besides, the “OEA level increase (activity call)” value in the data set with Rattus norvegicus [14] was “Active”.
